The text below walks through data of patent US8962854B2, “Luminescent substrate for luciferase” (The University of Electro-Communications, priority 2011, dated 2015).

One assay addresses firefly luciferase (Photinus pyralis, UniProt P08659). In words: Bioluminescent emission spectrum measurement. Format: biochemical. The settings on record: ATP-Mg. How it is done:
In a 200 μL polystyrene tube, potassium phosphate buffer solution (0.5 M, pH 8.0, 20 μl), substrate solution (2.5 mM, 20 μl), enzyme solution (20 μl), to and ATP-Mg solution (10 mM, 40 μl) were mixed, and emission spectrum measurement was performed. An enzyme solution with a concentration of 17 μM was used. Enzymes with a concentration of 1.7 μM for the firefly luciferin and of 170 μM for the phenol-type luciferin, however, were used. The exposure time for emission spectrum measurement was 60 seconds. For the firefly luciferin, however, the time was five seconds.

The conditions of assay [1]: University of Tokyo luciferin derivative; cited from earlier work.
[2] abbreviates: reaction with firefly luciferase, substrate solution 2.5 mM, enzyme solution 17 μM, pH 8.0, exposure 60 seconds.

firefly luciferase, sequence (P08659 whole entry): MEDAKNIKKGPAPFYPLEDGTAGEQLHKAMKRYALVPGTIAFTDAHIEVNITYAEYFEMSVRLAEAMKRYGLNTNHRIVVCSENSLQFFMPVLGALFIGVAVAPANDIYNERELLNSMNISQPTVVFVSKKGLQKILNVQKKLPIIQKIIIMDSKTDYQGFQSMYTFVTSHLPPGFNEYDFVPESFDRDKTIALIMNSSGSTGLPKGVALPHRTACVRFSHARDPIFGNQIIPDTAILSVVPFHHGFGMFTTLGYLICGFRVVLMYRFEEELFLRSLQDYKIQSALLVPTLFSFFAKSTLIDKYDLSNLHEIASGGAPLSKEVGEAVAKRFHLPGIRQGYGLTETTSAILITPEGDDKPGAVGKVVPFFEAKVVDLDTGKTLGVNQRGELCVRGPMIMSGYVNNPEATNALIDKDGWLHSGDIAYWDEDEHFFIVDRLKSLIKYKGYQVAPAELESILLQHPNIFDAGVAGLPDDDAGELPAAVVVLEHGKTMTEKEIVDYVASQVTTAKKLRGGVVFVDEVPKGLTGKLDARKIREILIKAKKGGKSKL

Turning to `C=CCc1c(O)ccc2nc(C3=N[C@@H](C(=O)O)CS3)sc12` [7-allyl-firefly luciferin 35, 7-allyl-firefly luciferin], the emission wavelength on firefly luciferase (setting [2]) is recorded as 605 nm.
Regarding `Nc1ccc2nc(C3=N[C@@H](C(=O)O)CS3)sc2c1` [Aminoluciferin], the emission wavelength entry in assay [1] is given as “approximately 610 nm”.
At firefly luciferase (firefly luciferin: enzyme 1.7 μM, exposure five seconds, pH 8.0), `O=C(O)C1CSC(c2nc3ccc(O)cc3s2)=N1` (stereo not drawn) [Firefly luciferin] had an emission wavelength of 565 nm.
Turning to `C=CCc1c(O)ccc2cc(/C=C/C3=NC(C(=O)O)CS3)ccc12` (stereo not drawn) [compound 21], the emission wavelength entry on firefly luciferase (setting [2]) is “approximately 690 nm”; on firefly luciferase (reaction with firefly luciferase, substrate solution 2.5 mM, enzyme solution 17 μM, pH 8.0, exposure 60 seconds, listed as FIG. 2), 690 nm.
In the case of `O=C(O)[C@H]1CSC(/C=C/c2ccc3cc(O)ccc3c2)=N1` [compound 39], the emission wavelength on firefly luciferase (setting [2]) came to 660 nm.
